# Test results from article PMC11219871, “Epigenetic-based differentiation therapy for Acute Myeloid Leukemia” (Nature Communications, 2024).
# “And” between values parts separate entries of the source, which are not always exact repeats. Identical values can stand only once.
# Experiments:
# HDAC5 = biological target: T1, HDAC5 (Homo sapiens, UniProt Q9UQL6); assay: HDAC assay (Eurofins); format: biochemical
# T1 construct: purchased Eurofins (contracted assay service)
# [1] = system: LINE-1 DNA methylation in HL-60; assay: LINE-1 pyrosequencing; format: cell-based, human; details: for LINE-1 methylation (%) CG Position 1 Replicate 1 / LINE-1 methylation (%) CG Position 1 Replicate 2 / LINE-1 methylation (%) CG Position 2 Replicate 1 / LINE-1 methylation (%) CG Position 2 Replicate 2 / LINE-1 methylation (%) CG Position 3 Replicate 1 / LINE-1 methylation (%) CG Position 3 Replicate 2 / LINE-1 methylation (%) CG Position 4 Replicate 1 / LINE-1 methylation (%) CG Position 4 Replicate 2 / LINE-1 methylation (%) CG Position 5 Replicate 1 / LINE-1 methylation (%) CG Position 5 Replicate 2: HL-60, 48 h
# Experimental: (§1) DNA methylation of the repetitive element LINE-1 was analyzed using a pyrosequencing technique. […] Cells were washed twice with PBS, and then genomic DNA was extracted using a DNA Kit (Nucleo Spin Tissue, Cat No 74095250, Macherey-Nagel) following the manufacturer's instructions. DNA purity and concentration were measured using a NanoDrop spectrophotometer (Thermo Scientific). A 1 μg amount of genomic DNA was treated and modified using a CpGenome DNA modification Kit (Cat No S7820, Chemicon International) following the manufacturer's instructions. […] [NT]) in a final volume of 25 μL. The resulting biotinylated PCR products were immobilized to Streptavidin Sepharose ® High-Performance beads (GE Healthcare) and processed to yield high-quality ssDNA using the PyroMark Vacuum Prep Workstation (Biotage) according to the manufacturer's instructions. The pyrosequencing reactions were performed using the PyromarkTM ID (Biotage), and sequence analysis was performed using the PyroQ-CpG analysis software (Biotage).
# [2] = system: LINE-1 DNA methylation in ML-2; assay: LINE-1 pyrosequencing; format: cell-based, human
# Experimental: as §1
# [3] = system: LINE-1 DNA methylation in MOLM-13; assay: LINE-1 pyrosequencing; format: cell-based, human
# Experimental: as §1
# [4] = system: LINE-1 DNA methylation in MV4-11; assay: LINE-1 pyrosequencing; format: cell-based, human
# Experimental: as §1
# T1 sequence (Q9UQL6 whole entry): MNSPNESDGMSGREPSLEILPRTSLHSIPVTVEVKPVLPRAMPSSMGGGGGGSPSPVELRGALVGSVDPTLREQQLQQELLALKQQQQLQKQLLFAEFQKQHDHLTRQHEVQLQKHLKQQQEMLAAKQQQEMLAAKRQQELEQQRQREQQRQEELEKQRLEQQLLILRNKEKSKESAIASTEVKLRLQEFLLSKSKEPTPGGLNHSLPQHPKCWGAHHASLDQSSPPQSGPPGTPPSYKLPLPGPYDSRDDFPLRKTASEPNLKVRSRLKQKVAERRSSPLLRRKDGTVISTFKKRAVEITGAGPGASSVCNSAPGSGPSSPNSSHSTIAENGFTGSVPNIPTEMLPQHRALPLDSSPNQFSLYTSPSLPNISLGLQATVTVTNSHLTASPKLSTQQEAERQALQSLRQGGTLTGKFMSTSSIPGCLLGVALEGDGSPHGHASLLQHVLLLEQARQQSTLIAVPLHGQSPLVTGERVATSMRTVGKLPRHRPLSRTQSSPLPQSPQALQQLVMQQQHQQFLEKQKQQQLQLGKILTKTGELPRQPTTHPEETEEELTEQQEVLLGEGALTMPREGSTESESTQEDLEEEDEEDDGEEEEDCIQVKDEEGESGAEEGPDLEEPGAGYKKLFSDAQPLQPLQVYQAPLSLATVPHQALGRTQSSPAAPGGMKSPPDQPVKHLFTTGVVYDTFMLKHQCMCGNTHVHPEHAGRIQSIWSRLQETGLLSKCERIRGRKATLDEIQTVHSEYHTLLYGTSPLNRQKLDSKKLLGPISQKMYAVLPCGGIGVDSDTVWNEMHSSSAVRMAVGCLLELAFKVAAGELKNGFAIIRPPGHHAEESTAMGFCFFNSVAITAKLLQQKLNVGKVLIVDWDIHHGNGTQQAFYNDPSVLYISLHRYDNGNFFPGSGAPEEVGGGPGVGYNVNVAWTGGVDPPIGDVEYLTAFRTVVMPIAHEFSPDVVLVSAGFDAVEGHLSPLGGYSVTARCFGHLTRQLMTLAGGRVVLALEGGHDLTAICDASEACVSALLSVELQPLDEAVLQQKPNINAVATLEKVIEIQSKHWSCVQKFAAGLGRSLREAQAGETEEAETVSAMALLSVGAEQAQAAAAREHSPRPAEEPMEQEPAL
compound,measurement,setting,value
"COc1cc2nc(-c3ccc(C)o3)cc(NCC3CCN(c4ncc(C(=O)NO)cn4)CC3)c2cc1OC [CM-444, 2-[4-[[[6,7-dimethoxy-2-(5-methyl-2-furyl)-4-quinolyl]amino]methyl]-1-piperidyl]pyrimidine-5-carbohydroxamic acid]",IC50,HDAC5,59 nM
same,inhibition at 10 µM,HDAC5,97%
same,LINE-1 methylation (%) CG Position 1,"[1]; 48 h, 0.27 µM",97%
same,LINE-1 methylation (%) CG Position 2,"[1]; 48 h, 0.27 µM",83%
same,LINE-1 methylation (%) CG Position 3,"[1]; 48 h, 0.27 µM",100%
same,LINE-1 methylation (%) CG Position 4,"[1]; 48 h, 0.27 µM",100%
same,LINE-1 methylation (%) CG Position 5,"[1]; 48 h, 0.27 µM",73%
same,LINE-1 methylation (%) CG Position 1 Replicate 1,[1],96%
same,LINE-1 methylation (%) CG Position 1 Replicate 2,[1],98%
same,LINE-1 methylation (%) CG Position 2 Replicate 1,[1],84%
same,LINE-1 methylation (%) CG Position 2 Replicate 2,[1],82%
same,LINE-1 methylation (%) CG Position 3 Replicate 1,[1],100%
same,LINE-1 methylation (%) CG Position 3 Replicate 2,[1],100%
same,LINE-1 methylation (%) CG Position 4 Replicate 1,[1],100%
same,LINE-1 methylation (%) CG Position 4 Replicate 2,[1],100%
same,LINE-1 methylation (%) CG Position 5 Replicate 1,[1],72%
same,LINE-1 methylation (%) CG Position 5 Replicate 2,[1],74%
same,LINE-1 methylation (%) CG Position 1,"[1]; HL-60, 10 days",77% and 81%
same,LINE-1 methylation (%) CG Position 2,"[1]; HL-60, 10 days",66% and 70%
same,LINE-1 methylation (%) CG Position 3,"[1]; HL-60, 10 days",71% and 75%
same,LINE-1 methylation (%) CG Position 4,"[1]; HL-60, 10 days",86% and 88%
same,LINE-1 methylation (%) CG Position 5,"[1]; HL-60, 10 days",65% and 63%
same,LINE-1 methylation (%) CG Position 1,"[2]; ML-2, 48 hours",65% and 67%
same,LINE-1 methylation (%) CG Position 2,"[2]; ML-2, 48 hours",73%
same,LINE-1 methylation (%) CG Position 3,"[2]; ML-2, 48 hours",77% and 81%
same,LINE-1 methylation (%) CG Position 4,"[2]; ML-2, 48 hours",86% and 88%
same,LINE-1 methylation (%) CG Position 5,"[2]; ML-2, 48 hours",56% and 64%
same,LINE-1 methylation (%) CG Position 1,"[2]; ML-2, 10 days",61% and 57%
same,LINE-1 methylation (%) CG Position 2,"[2]; ML-2, 10 days",48% and 46%
same,LINE-1 methylation (%) CG Position 3,"[2]; ML-2, 10 days",66% and 62%
same,LINE-1 methylation (%) CG Position 4,"[2]; ML-2, 10 days",64% and 60%
same,LINE-1 methylation (%) CG Position 5,"[2]; ML-2, 10 days",46% and 44%
same,LINE-1 methylation (%) CG Position 1,"[3]; MOLM-13, 48 hours",100%
same,LINE-1 methylation (%) CG Position 2,"[3]; MOLM-13, 48 hours",83% and 79%
same,LINE-1 methylation (%) CG Position 3,"[3]; MOLM-13, 48 hours",100%
same,LINE-1 methylation (%) CG Position 4,"[3]; MOLM-13, 48 hours",100%
same,LINE-1 methylation (%) CG Position 5,"[3]; MOLM-13, 48 hours",74% and 78%
same,LINE-1 methylation (%) CG Position 1,"[3]; MOLM-13, 5 days",62%
same,LINE-1 methylation (%) CG Position 2,"[3]; MOLM-13, 5 days",60% and 68%
same,LINE-1 methylation (%) CG Position 3,"[3]; MOLM-13, 5 days",69% and 73%
same,LINE-1 methylation (%) CG Position 4,"[3]; MOLM-13, 5 days",74% and 76%
same,LINE-1 methylation (%) CG Position 5,"[3]; MOLM-13, 5 days",53% and 55%
same,LINE-1 methylation (%) CG Position 1,"[4]; MV4-11, 48 hours",83% and 85%
same,LINE-1 methylation (%) CG Position 2,"[4]; MV4-11, 48 hours",79% and 77%
same,LINE-1 methylation (%) CG Position 3,"[4]; MV4-11, 48 hours",99% and 97%
same,LINE-1 methylation (%) CG Position 4,"[4]; MV4-11, 48 hours",100%
same,LINE-1 methylation (%) CG Position 5,"[4]; MV4-11, 48 hours",70% and 66%
same,LINE-1 methylation (%) CG Position 1,"[4]; MV4-11, 5 days",80% and 82%
same,LINE-1 methylation (%) CG Position 2,"[4]; MV4-11, 5 days",79% and 77%
same,LINE-1 methylation (%) CG Position 3,"[4]; MV4-11, 5 days",77%
same,LINE-1 methylation (%) CG Position 4,"[4]; MV4-11, 5 days",91% and 89%
same,LINE-1 methylation (%) CG Position 5,"[4]; MV4-11, 5 days",65% and 67%
"COc1cc2nc(-c3cc(C)oc3C)cc(NCC3CCN(c4ncc(C(=O)NO)cn4)CC3)c2cc1OC [CM-1758, 2-[4-[[[2-(2,5-dimethyl-3-furyl)-6,7-dimethoxy-4-quinolyl]amino]methyl] -1-piperidyl]pyrimidine-5-carbohydroxamic acid]",IC50,HDAC5,270 nM
same,inhibition at 10 µM,HDAC5,98%
same,LINE-1 methylation (%) CG Position 1 Replicate 1,[1],100%
same,LINE-1 methylation (%) CG Position 1 Replicate 2,[1],100%
same,LINE-1 methylation (%) CG Position 2 Replicate 1,[1],86%
same,LINE-1 methylation (%) CG Position 2 Replicate 2,[1],82%
same,LINE-1 methylation (%) CG Position 3 Replicate 1,[1],100%
same,LINE-1 methylation (%) CG Position 3 Replicate 2,[1],100%
same,LINE-1 methylation (%) CG Position 4 Replicate 1,[1],100%
same,LINE-1 methylation (%) CG Position 4 Replicate 2,[1],100%
same,LINE-1 methylation (%) CG Position 5 Replicate 1,[1],79%
same,LINE-1 methylation (%) CG Position 5 Replicate 2,[1],83%
same,LINE-1 methylation (%) CG Position 1,"[1]; HL-60, 10 days",76% and 78%
same,LINE-1 methylation (%) CG Position 2,"[1]; HL-60, 10 days",61% and 65%
same,LINE-1 methylation (%) CG Position 3,"[1]; HL-60, 10 days",77% and 85%
same,LINE-1 methylation (%) CG Position 4,"[1]; HL-60, 10 days",87% and 93%
same,LINE-1 methylation (%) CG Position 5,"[1]; HL-60, 10 days",57% and 55%
same,LINE-1 methylation (%) CG Position 1,"[2]; ML-2, 48 hours",70% and 68%
same,LINE-1 methylation (%) CG Position 2,"[2]; ML-2, 48 hours",72% and 74%
same,LINE-1 methylation (%) CG Position 3,"[2]; ML-2, 48 hours",78% and 80%
same,LINE-1 methylation (%) CG Position 4,"[2]; ML-2, 48 hours",85% and 89%
same,LINE-1 methylation (%) CG Position 5,"[2]; ML-2, 48 hours",59% and 61%
same,LINE-1 methylation (%) CG Position 1,"[2]; ML-2, 10 days",60%
same,LINE-1 methylation (%) CG Position 2,"[2]; ML-2, 10 days",54% and 50%
same,LINE-1 methylation (%) CG Position 3,"[2]; ML-2, 10 days",61% and 63%
same,LINE-1 methylation (%) CG Position 4,"[2]; ML-2, 10 days",73% and 65%
same,LINE-1 methylation (%) CG Position 5,"[2]; ML-2, 10 days",43% and 39%
same,LINE-1 methylation (%) CG Position 1,"[3]; MOLM-13, 48 hours",99% and 97%
same,LINE-1 methylation (%) CG Position 2,"[3]; MOLM-13, 48 hours",85% and 81%
same,LINE-1 methylation (%) CG Position 3,"[3]; MOLM-13, 48 hours",100% and 96%
same,LINE-1 methylation (%) CG Position 4,"[3]; MOLM-13, 48 hours",100%
same,LINE-1 methylation (%) CG Position 5,"[3]; MOLM-13, 48 hours",70% and 82%
same,LINE-1 methylation (%) CG Position 1,"[3]; MOLM-13, 5 days",69% and 59%
same,LINE-1 methylation (%) CG Position 2,"[3]; MOLM-13, 5 days",63% and 69%
same,LINE-1 methylation (%) CG Position 3,"[3]; MOLM-13, 5 days",78% and 80%
same,LINE-1 methylation (%) CG Position 4,"[3]; MOLM-13, 5 days",83% and 87%
same,LINE-1 methylation (%) CG Position 5,"[3]; MOLM-13, 5 days",58% and 54%
same,LINE-1 methylation (%) CG Position 1,"[4]; MV4-11, 48 hours",85%
same,LINE-1 methylation (%) CG Position 2,"[4]; MV4-11, 48 hours",80% and 74%
same,LINE-1 methylation (%) CG Position 3,"[4]; MV4-11, 48 hours",87%
same,LINE-1 methylation (%) CG Position 4,"[4]; MV4-11, 48 hours",95% and 97%
same,LINE-1 methylation (%) CG Position 5,"[4]; MV4-11, 48 hours",69% and 65%
same,LINE-1 methylation (%) CG Position 1,"[4]; MV4-11, 5 days",79% and 75%
same,LINE-1 methylation (%) CG Position 2,"[4]; MV4-11, 5 days",77% and 79%
same,LINE-1 methylation (%) CG Position 3,"[4]; MV4-11, 5 days",82% and 84%
same,LINE-1 methylation (%) CG Position 4,"[4]; MV4-11, 5 days",92% and 86%
same,LINE-1 methylation (%) CG Position 5,"[4]; MV4-11, 5 days",66% and 60%
